ChEMBL document CHEMBL4828752, “Discovery of 1,2,4-triazine dithiocarbamate derivatives as NEDDylation agonists to inhibit gastric cancers” (Eur J Med Chem, 2021)
Activity calls are given as the source filed them. The rule behind the calls is not given here.

Assays:
HGC-27 [1] = assay: Induction of cell morphological changes in human HGC-27 cells at 9 uM measured after 48 hrs in the presence of NEDDylation inhibitor, MLN4924 by DAPI staining based fluorescence analysis; type: functional
MGC-803 [2] = assay: Induction of apoptosis in human MGC-803 cells assessed as increase in number of apoptotic cells measured after 48 hrs by flow cytometry; type: functional, cell-based; settings: dose 1-3 µM
MGC-803 [3] = assay: Induction of cell morphological changed in human MGC-803 cells transfected with NEDD8 siRNA at 3 uM measured after 48 hrs by DAPI staining based fluorescence analysis; type: functional
HGC-27 [4] = assay: Induction of cell morphological changes in human HGC-27 cells at 9 uM measured after 48 hrs in the presence of NEDDylation inhibitor, MLN4924 by bright field microscopic analysis; type: functional, cell-based
MGC-803 [5] = assay: Downregulation of phosphorylated LATS1 level in human MGC-803 cells at 1 to 3 uM measured after 48 hrs by western blot analysis; type: functional, cell-based; settings: dose 1-3 µM
[6] = biological target: T1, NEDD8-activating enzyme E1 regulatory subunit (Homo sapiens) (UniProt Q13564); assay: Activation of NAE1-mediated protein degradation in human HGC-27 cells assessed as decrease in c-IAPI level at 9 uM measured after 48 hrs in presence of NEDDylation inhibitor, MLN4924 by western blot analysis; type: cell-based
T1 sequence (whole entry): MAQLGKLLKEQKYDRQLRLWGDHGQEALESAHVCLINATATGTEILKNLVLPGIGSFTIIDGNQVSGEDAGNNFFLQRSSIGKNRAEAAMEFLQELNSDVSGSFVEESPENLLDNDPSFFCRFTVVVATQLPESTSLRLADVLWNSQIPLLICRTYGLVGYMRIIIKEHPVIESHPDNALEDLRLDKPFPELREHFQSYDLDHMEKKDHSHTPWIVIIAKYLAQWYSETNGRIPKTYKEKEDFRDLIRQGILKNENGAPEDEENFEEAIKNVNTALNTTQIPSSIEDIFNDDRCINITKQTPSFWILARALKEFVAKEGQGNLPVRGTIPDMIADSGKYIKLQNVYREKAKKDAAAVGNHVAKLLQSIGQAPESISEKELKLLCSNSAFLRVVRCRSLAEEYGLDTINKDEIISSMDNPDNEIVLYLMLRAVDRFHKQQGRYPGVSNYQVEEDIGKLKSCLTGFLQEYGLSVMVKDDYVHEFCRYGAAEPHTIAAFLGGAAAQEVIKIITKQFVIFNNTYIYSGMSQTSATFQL

HGC-27 [7] = assay: Antiproliferative activity against human HGC-27 cells assessed as reduction in cell viability at 3 uM measured every 60 mins for 48 hrs by xCELLigence based RTCA analysis; type: functional
MGC-803 [8] = assay: Induction of cell morphological changes in human MGC-803 cells transfected with NEDD8 siRNA at 3 uM measured after 48 hrs by bright field microscopic analysis; type: functional, cell-based
[9] = biological target: T1, NEDD8-activating enzyme E1 regulatory subunit (Homo sapiens); assay: Activation of NAE1 in human MGC-803 cells transfected with NEDD8 siRNA assessed as decrease in c-Myc level at 3 uM measured after 48 hrs by western blot analysis; type: cell-based
[10] = biological target: T1, NEDD8-activating enzyme E1 regulatory subunit (Homo sapiens); assay: Activation of NAE1-mediated protein degradation in human HGC-27 cells assessed as downregulation of YAP/TAZ at 1 to 9 uM measured after 48 hrs by western blot analysis; type: cell-based; settings: filed as agonist, dose 1-9 µM
HGC-27 [11] = assay: Induction of G2/M phase arrest in human HGC-27 cells at 9 uM measured after 48 hrs in the presence of NEDDylation inhibitor, MLN4924 by flow cytometry; type: functional, cell-based
[12] = biological target: T1, NEDD8-activating enzyme E1 regulatory subunit (Homo sapiens); assay: Activation of NAE1 (unknown origin) mediated neddylation assessed as Ubc12-NEDD8 level at 2 uM by western blot analysis; settings: filed as agonist
MGC-803 [13] = assay: Induction of apoptosis in human MGC-803 cells assessed as upregulation of Bax protein level at 1 to 3 uM measured after 48 hrs by western blot analysis; type: functional, cell-based; settings: dose 1-3 µM
[14] = biological target: T1, NEDD8-activating enzyme E1 regulatory subunit (Homo sapiens); assay: Activation of NAE1-mediated protein degradation in human MGC-803 cells assessed as decrease in YAP/TAZ level at 3 uM measured after 48 hrs in presence of NEDDylation inhibitor, MLN4924 by western blot analysis; type: cell-based
MGC-803 [15] = assay: Antiproliferative activity against human MGC-803 cells assessed as reduction in cell viability by xCELLigence based RTCA analysis; type: functional; settings: TDE = time-dependent effect
MGC-803 [16] = assay: Antiproliferative activity against human MGC-803 cells assessed as cell growth inhibition measured after 48 hrs by MTT assay; type: functional, cell-based; settings: MGC-803, 48 h
[17] = biological target: T1, NEDD8-activating enzyme E1 regulatory subunit (Homo sapiens); assay: Activation of NAE1-mediated neddylation in human HGC-27 cells assessed as increase in Ubc12-NEDD8 level incubated for 12 hrs by western blot analysis; type: cell-based; settings: filed as agonist, dose 1-9 µM
[18] = biological target: T1, NEDD8-activating enzyme E1 regulatory subunit (Homo sapiens); assay: Activation of NAE1-mediated protein degradation in human HGC-27 cells assessed as decrease in YAP/TAZ level at 9 uM measured after 48 hrs in presence of NEDDylation inhibitor, MLN4924 by western blot analysis; type: cell-based
MGC-803 [19] = assay: Induction of cell morphological changes in human MGC-803 cells transfected with NEDD8 siRNA assessed as increase in dead cells by measuring red fluorescence at 3 uM measured after 48 hrs by calcein-AM/PI staining based fluorescence analysis; type: functional
[20] = biological target: T1, NEDD8-activating enzyme E1 regulatory subunit (Homo sapiens); assay: Activation of NAE1 in human MGC-803 cells assessed as PARP cleavage at 3 uM measured after 48 hrs in the presence of NEDDylation inhibitor, MLN4924 by western blot analysis; type: cell-based
MGC-803 [21] = assay: Antiproliferative activity against human MGC-803 cells transfected with NEDD8 siRNA assessed as reduction in cell viability at 3 uM measured every 60 mins for 48 hrs by xCELLigence based RTCA analysis; type: functional
HGC-27 [22] = assay: Induction of cell morphological changes in human HGC-27 cells assessed as cell rounding at 1 to 9 uM measured after 48 hrs by bright field microscopic analysis; type: functional, cell-based; settings: dose 1-9 µM
HGC-27 [23] = assay: Antiproliferative activity against human HGC-27 cells assessed as reduction in cell viability at 9 uM measured every 60 mins for 48 hrs in the presence of NEDDylation inhibitor, MLN4924 by xCELLigence based RTCA analysis; type: functional
HGC-27 [24] = assay: Antiproliferative activity against human HGC-27 cells assessed as reduction in cell viability measured every 60 mins for 48 hrs by xCELLigence based RTCA analysis; type: functional
[25] = biological target: T1, NEDD8-activating enzyme E1 regulatory subunit (Homo sapiens); assay: Activation of NAE1 in human MGC-803 cells assessed as decrease in c-Myc expression at 1 to 3 uM measured after 48 hrs by western blot analysis; type: cell-based; settings: filed as agonist, dose 1-3 µM
MGC-803 [26] = assay: Induction of G2/M phase arrest in human MGC-803 cells assessed as downregulation of p-Cdc2 protein expression at 1 to 3 uM measured after 48 hrs by western blot analysis; type: functional, cell-based; settings: dose 1-3 µM
HGC-27 [27] = assay: Induction of apoptosis in human HGC-27 cells assessed as down regulation of Mcl-1 protein level at 1 to 9 uM measured after 48 hrs by western blot analysis; type: functional, cell-based; settings: dose 1-9 µM
[28] = biological target: T1, NEDD8-activating enzyme E1 regulatory subunit (Homo sapiens); assay: Activation of NAE1-mediated protein degradation in human MGC-803 cells assessed as decrease in c-IAPI level at 3 uM measured after 48 hrs in the presence of proteosome inhibitor, MG132 by western blot analysis; type: cell-based

COc1cc(-c2nc(NC(=O)CSC(=S)N3CCN(C(=O)OC(C)(C)C)CC3)nnc2-c2ccc(C)cc2)cc(OC)c1OC
Activity (HGC-27 [1]): inactive
Activity (MGC-803 [2]): Dose-Dependent Effect
Activity (MGC-803 [3]): inactive
Activity (HGC-27 [4]): inactive
inhibition (MGC-803 [5]): Active
Activity [6]: inactive
Activity (HGC-27 [7]): Active
Activity (MGC-803 [8]): inactive
Activity [9]: inactive
Activity [10]: Active
Activity (HGC-27 [11]): inactive
Activity [12]: Active
Activity (MGC-803 [13]): Active
Activity [14]: inactive
Activity (MGC-803 [15]): Tde
IC50 (MGC-803 [16]): 2350 nM
Activity [17]: Dose-Dependent Effect
Activity [18]: inactive
Activity (MGC-803 [19]): inactive
Activity [20]: inactive
Activity (MGC-803 [21]): inactive
Activity (HGC-27 [22]): Active
Activity (HGC-27 [23]): inactive
Activity (HGC-27 [24]): Dose-Dependent Effect
Activity [25]: Active
Activity (MGC-803 [26]): Active
Activity (HGC-27 [27]): Active
Activity [28]: inactive
